Data as given in patent US20240050576A1, “METHODS AND COMPOUNDS FOR THE TREATMENT OF GENETIC DISEASE” (Design Therapeutics, Inc., priority 2020, published 2024).

Test system: human FXN
Test: FXN mRNA expression by qRT-PCR in GM15850 cells after 48 hr compound treatment
Format: cell-based
Details: Homo sapiens; GM15850 cells, 48 hr incubation, hFXN normalized to hGAPDH; read-out: EC50 WT (nM, 48 hr)
Protocol: Cell culture: Cells were cultured in RPMI1640 medium+15% FBS. Cells were maintained at a density between 2e5/mL and 1e6/mL. Cells were centrifuged, resuspended in fresh medium, counted and plated at 150,000 cells per well in 100 uL in a non-coated, flat bottom tissue culture plate.
Compound treatment: 10 mM stock solution of FA GeneTAC was diluted 1:10 in DMSO followed by a 1:100 dilution in growth medium. […] Compound was then diluted at a 1:3 ratio into growth medium containing 0.01% DMSO. 5-point, 3-fold dose response curve was generated. 11 μL of 10× compound was added to wells containing 100 μL cell suspension of GM15850. 11 μL growth medium containing 0.01% DMSO was added to all wells not treated with FA GeneTAC. Cells were allowed to incubate for 48 hrs prior to cell lysis using guanidine isothiocyanate solution.
RNA isolation: Total RNA was isolated and purified in 384-well column filter plates using chaotropic salt.
qRT-PCR: qRT-PCR reactions were assembled using AgPath-ID reagents (Thermo Fisher) using 6 uL mastermix and 4 μL RNA. qRT-PCR TaqMan primer probe sets against human FXN (Assay ID Hs01075496_m1) and human GAPDH (Assay ID Hs00266705_g1) were used to measure the intended targets. qRT-PCR was run on the ThermoFisher QuantStudio 6 PRO instrument using the manufacturer's recommended cycling conditions.
Data analysis: qPCR data was analyzed using Thermo Fisher Design and Analysis software. Data was exported to Excel and hFXN expression was normalized to hGAPDH expression.

| SMILES | EC50 |
| --- | --- |
| Cc1sc2c(c1C)C(c1ccc(Cl)cc1)=N[C@@H](CC(=O)Nc1ccc(OCCOCCOCCOCCOCCOCCOCCOCCOCCNC(=O)CCNC(=O)c3cc(NC(=O)c4nc(NC(=O)CCNC(=O)c5cc(NC(=O)c6nc(NC(=O)CCNC(=O)c7cc(NC(=O)c8nccn8C)cn7C)cn6C)cn5C)cn4C)cn3C)cc1)c1nnc(C)n1-2 [Compound 33] | 100 to 500 nM |
| COC[C@@H](C)n1c(C2CCN(CCOCCOCCOCCOCCOCCC(=O)NCCCN(C)CCCNC(=O)CCNC(=O)c3nc(NC(=O)CCNC(=O)c4cc(NC(=O)c5nc(NC(=O)CCNC(=O)c6cc(NC(=O)c7nccn7C)cn6C)cn5C)cn4C)cn3C)CC2)nc2cnc3cc(-c4c(C)noc4C)c(OC)cc3c21 [Compound 10] | 100 to 500 nM |
| CC(=O)N1c2ccc(-c3ccc(C(=O)NCCOCCOCCOCCOCCOCCOCCOCCOCCNC(=O)CCNC(=O)c4nc(NC(=O)CCNC(=O)c5cc(NC(=O)c6nc(NC(=O)CCNC(=O)c7cc(NC(=O)c8nccn8C)cn7C)cn6C)cn5C)cn4C)cc3)cc2[C@H](Nc2ccc(Cl)cc2)C[C@@H]1C [Compound 36] | < 100 nM |
| CC(=O)N1c2ccc(-c3cnc(C(=O)NCCOCCOCCOCCOCCOCCC(=O)NCCCN(C)CCCNC(=O)CCNC(=O)c4nc(NC(=O)CCNC(=O)c5cc(NC(=O)c6nc(NC(=O)CCNC(=O)c7cc(NC(=O)c8nccn8C)cn7C)cn6C)cn5C)cn4C)nc3)cc2N(Cc2ccccc2CO)C[C@@H]1C1CC1 [Compound 30] | > 500 nM |
| CC(=O)N1c2ccc(-c3ccc(C(=O)NCCOCCOCCOCCOCCOCCOCCOCCOCCNC(=O)c4nc(NC(=O)CCNC(=O)c5cc(NC(=O)c6nc(NC(=O)CCNC(=O)c7cc(NC(=O)c8nc(NC(=O)CCNC(=O)COCCOCCOCCOCCOCCOCCOCCOCCOCCOCCOCCOCCOCCOCCOCCN)cn8C)cn7C)cn6C)cn5C)cn4C)cc3)cc2[C@H](Nc2ccc(Cl)cc2)C[C@@H]1C [Compound 89] | > 500 nM |
| CC(=O)N1c2ccc(-c3ccc(C(=O)NCCOCCOCCOCCOCCOCCOCCOCCOCCNC(=O)c4nc(NC(=O)CCNC(=O)c5cc(NC(=O)c6nc(NC(=O)CCNC(=O)c7cc(NC(=O)c8nc(NC(=O)CCNC(=N)N)cn8C)cn7C)cn6C)cn5C)cn4C)cc3)cc2[C@H](Nc2ccc(Cl)cc2)C[C@@H]1C [Compound 86, N-[5-([2-[(2-[[26-([4-[(2S,4R)-1-acetyl-4-[(4-chlorophenyl)amino]-2-methyl-3,4-dihydro-2H-quinolin-6-yl]phenyl]formamido)-3,6,9,12,15,18,21,24-octaoxahexacosan-1-yl]carbamoyl]-1-methylimidazol-4-yl)carbamoyl]ethyl]carbamoyl)-1-methylpyrrol-3-yl]-4-[3-([4-[4-(3-carbamimidamidopropanamido)-1-methylimidazole-2-amido]-1-methylpyrrol-2-yl]formamido)propanamido]-1-methylimidazole-2-carboxamide] | > 500 nM |
| Cc1sc2c(c1C)C(c1ccc(Cl)cc1)=N[C@@H](CC(=O)Nc1ccc(OCCOCCOCCOCCOCCOCCC(=O)NCCCOCCCNC(=O)CCNC(=O)c3nc(NC(=O)CCNC(=O)c4cc(NC(=O)c5nc(NC(=O)CCNC(=O)c6cc(NC(=O)c7nccn7C)cn6C)cn5C)cn4C)cn3C)cc1)c1nnc(C)n1-2 [Compound 58] | < 100 nM |
| Cc1sc2c(c1C)C(c1ccc(Cl)cc1)=N[C@@H](CC(=O)Nc1cccc(OCCOCCOCCOCCOCCOCCOCCOCCOCCNC(=O)CCNC(=O)c3nc(NC(=O)CCNC(=O)c4cc(NC(=O)c5nc(NC(=O)CCNC(=O)c6cc(NC(=O)c7nccn7C)cn6C)cn5C)cn4C)cn3C)c1)c1nnc(C)n1-2 [Compound 65] | 100 to 500 nM |
| Cc1sc2c(c1C)C(c1ccc(Cl)cc1)=N[C@@H](CC(=O)Nc1ccc(OCCOCCOCCOCCOCCOCCNC(=O)CCNC(=O)c3nc(NC(=O)CCNC(=O)c4cc(NC(=O)c5nc(NC(=O)CCNC(=O)c6cc(NC(=O)c7nccn7C)cn6C)cn5C)cn4C)cn3C)cc1)c1nnc(C)n1-2 [Compound 21] | 100 to 500 nM |
| COC[C@@H](C)n1c(C2CCN(C(=O)COCCOCCOCCOCCOCCC(=O)NCCCN(C)CCCNC(=O)CCNC(=O)c3nc(NC(=O)CCNC(=O)c4cc(NC(=O)c5nc(NC(=O)CCNC(=O)c6cc(NC(=O)c7nccn7C)cn6C)cn5C)cn4C)cn3C)CC2)nc2cnc3cc(-c4c(C)noc4C)c(OC)cc3c21 [Compound 20] | 100 to 500 nM |
| COc1ccc2c(c1)C(c1ccc(Cl)cc1)=N[C@@H](CC(=O)Nc1ccc(OCCOCCOCCOCCOCCOCCOCCOCCOCCNC(=O)CCNC(=O)c3nc(NC(=O)CCNC(=O)c4cc(NC(=O)c5nc(NC(=O)CCNC(=O)c6cc(NC(=O)c7nccn7C)cn6C)cn5C)cn4C)cn3C)cc1)c1nnc(C)n1-2 [Compound 25] | 100 to 500 nM |
| COC[C@@H](C)n1c(C2CCN(C(=O)COCCOCCOCCOCCOCCOCCOCCNC(=O)CCNC(=O)c3nc(NC(=O)CCNC(=O)c4cc(NC(=O)c5nc(NC(=O)CCNC(=O)c6cc(NC(=O)c7nccn7C)cn6C)cn5C)cn4C)cn3C)CC2)nc2cnc3cc(-c4c(C)noc4C)c(OC)cc3c21 [Compound 43, N-[5-[(2-[[2-([2-[(23-[4-[7-(3,5-dimethyl-1,2-oxazol-4-yl)-8-methoxy-1-[(2R)-1-methoxypropan-2-yl]imidazo[4,5-c]quinolin-2-yl]piperidin-1-yl]-23-oxo-3,6,9,12,15,18,21-heptaoxatricosan-1-yl)carbamoyl]ethyl]carbamoyl)-1-methylimidazol-4-yl]carbamoyl]ethyl)carbamoyl]-1-methylpyrrol-3-yl]-1-methyl-4-(3-[[1-methyl-4-(1-methylimidazole-2-amido)pyrrol-2-yl]formamido]propanamido) imidazole-2-carboxamide] | > 500 nM |
| CC(=O)N1c2ccc(-c3ccc(C(=O)NCCOCCOCCOCCOCCOCCC(=O)NCCCN(C)CCCNC(=O)CCNC(=O)c4nc(NC(=O)CCNC(=O)c5cc(NC(=O)c6nc(NC(=O)CCNC(=O)c7cc(NC(=O)c8nccn8C)cn7C)cn6C)cn5C)cn4C)cc3)cc2[C@H](Nc2ccc(Cl)cc2)C[C@@H]1C [Compound 31] | < 100 nM |
| Cc1sc2c(c1C)C(c1ccc(Cl)cc1)=N[C@@H](CC(=O)Nc1ccc(OCCOCCOCCOCCOCCOCCOCCOCCC(=O)NCCCN(C)CCCNC(=O)c3cc(NC(=O)c4nc(NC(=O)CCNC(=O)c5cc(NC(=O)c6nc(NC(=O)CCNC(=O)c7cc(NC(=O)c8nccn8C)cn7C)cn6C)cn5C)cn4C)cn3C)cc1)c1nnc(C)n1-2 [Compound 56] | 100 to 500 nM |
| Cc1sc2c(c1C)C(c1ccc(Cl)cc1)=N[C@@H](CC(=O)Nc1ccc(CCCOCCOCCOCCOCCOCCC(=O)NCCCN(C)CCCNC(=O)CCNC(=O)c3nc(NC(=O)CCNC(=O)c4cc(NC(=O)c5nc(NC(=O)CCNC(=O)c6cc(NC(=O)c7nccn7C)cn6C)cn5C)cn4C)cn3C)cc1)c1nnc(C)n1-2 [Compound 60] | 100 to 500 nM |
| COc1ccc2c(c1)C(c1ccc(Cl)cc1)=N[C@H](CC(=O)Nc1ccc(OCCOCCOCCOCCOCCOCCOCCOCCOCCNC(=O)CCNC(=O)c3nc(NC(=O)CCNC(=O)c4cc(NC(=O)c5nc(NC(=O)CCNC(=O)c6cc(NC(=O)c7nccn7C)cn6C)cn5C)cn4C)cn3C)cc1)c1nnc(C)n1-2 [Compound 26] | 100 to 500 nM |
| Cc1sc2c(c1C)C(c1ccc(Cl)cc1)=N[C@@H](CC(=O)Nc1ccc(OCCOCCOCCOCCOCCOCCOCCOCCOCCOCCNC(=O)CCNC(=O)c3nc(NC(=O)CCNC(=O)c4cc(NC(=O)c5nc(NC(=O)CCNC(=O)c6cc(NC(=O)c7nccn7C)cn6C)cn5C)cn4C)cn3C)cc1)c1nnc(C)n1-2 [Compound 24] | < 100 nM |
| CC(=O)N1c2ccc(-c3ccc(C(=O)NCCOCCOCCOCCOCCOCCOCCOCCOCCNC(=O)c4cc(NC(=O)c5nc(NC(=O)CCNC(=O)c6cc(NC(=O)c7nc(NC(=O)CCNC(=O)[C@H](CCCNC(=N)N)NC(=O)[C@@H](N)CCCNC(=N)N)cn7C)cn6C)cn5C)cn4C)cc3)cc2[C@H](Nc2ccc(Cl)cc2)C[C@@H]1C [Compound 75] | > 500 nM |
| CC(=O)N1c2ccc(-c3ccc(C(=O)NCCOCCOCCOCCOCCOCCOCCOCCOCCNC(=O)c4nc(NC(=O)CCNC(=O)c5cc(NC(=O)c6nc(NC(=O)CCNC(=O)c7cc(NC(=O)c8nc(NC(=O)CCNC(=O)COCCOCCOCCN9CCN(CC%10CCNCC%10)CC9)cn8C)cn7C)cn6C)cn5C)cn4C)cc3)cc2[C@H](Nc2ccc(Cl)cc2)C[C@@H]1C [Compound 88] | > 500 nM |
| Cc1cc(-c2nc3cnc(C4CCN(CCOCCOCCOCCOCCOCCC(=O)NCCCN(C)CCCNC(=O)CCNC(=O)c5nc(NC(=O)CCNC(=O)c6cc(NC(=O)c7nc(NC(=O)CCNC(=O)c8cc(NC(=O)c9nccn9C)cn8C)cn7C)cn6C)cn5C)CC4)cc3n2[C@@H](C)c2ccccc2)nn(C)c1=O [Compound 9] | 100 to 500 nM |
| Cc1sc2c(c1C)C(c1ccc(Cl)cc1)=N[C@@H](CC(=O)Nc1ccc(OCCOCCOCCOCCOCCOCCOCCNC(=O)CCNC(=O)c3nc(NC(=O)CCNC(=O)c4cc(NC(=O)c5nc(NC(=O)CCNC(=O)c6cc(NC(=O)c7nccn7C)cn6C)cn5C)cn4C)cn3C)cc1)c1nnc(C)n1-2 [Compound 22] | 100 to 500 nM |
| COc1ccc2c(c1)C(c1ccc(Cl)cc1)=N[C@H](CC(=O)Nc1ccc(OCCOCCOCCOCCOCCOCCC(=O)NCCCN(C)CCCNC(=O)CCNC(=O)c3nc(NC(=O)CCNC(=O)c4cc(NC(=O)c5nc(NC(=O)CCNC(=O)c6cc(NC(=O)c7nccn7C)cn6C)cn5C)cn4C)cn3C)cc1)c1nnc(C)n1-2 [Compound 11] | > 500 nM |
